Test results from paper PMC4891385 (Clinical Drug Investigation, 2016).

How the values were obtained:
Type in all cases: in vitro ADME
[1] = molecular target: T1, BCRP (Homo sapiens, UniProt Q9UNQ0); experiment: [14C]-lesinurad substrate test, BCRP in Caco-2 cells
T1 sequence (Q9UNQ0 1-655): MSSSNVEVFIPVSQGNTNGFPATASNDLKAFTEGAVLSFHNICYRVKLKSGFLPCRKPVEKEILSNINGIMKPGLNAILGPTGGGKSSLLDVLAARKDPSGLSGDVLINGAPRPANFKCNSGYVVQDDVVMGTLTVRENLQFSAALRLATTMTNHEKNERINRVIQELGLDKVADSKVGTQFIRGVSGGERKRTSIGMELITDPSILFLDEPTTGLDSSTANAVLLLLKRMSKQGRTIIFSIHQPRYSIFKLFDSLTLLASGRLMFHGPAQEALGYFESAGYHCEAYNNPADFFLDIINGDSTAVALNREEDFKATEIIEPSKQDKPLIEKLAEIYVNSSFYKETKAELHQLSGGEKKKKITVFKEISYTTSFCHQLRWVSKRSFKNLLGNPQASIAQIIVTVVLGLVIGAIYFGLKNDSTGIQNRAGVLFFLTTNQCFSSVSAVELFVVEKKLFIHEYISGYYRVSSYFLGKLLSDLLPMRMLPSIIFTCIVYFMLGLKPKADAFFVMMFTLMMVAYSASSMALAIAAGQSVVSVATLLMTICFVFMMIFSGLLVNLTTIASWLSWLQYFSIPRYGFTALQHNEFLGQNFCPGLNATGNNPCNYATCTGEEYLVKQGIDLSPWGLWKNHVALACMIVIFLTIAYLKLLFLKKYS

[2] = molecular target: T2, OAT3 (Homo sapiens, UniProt Q8TCC7); experiment: [14C]-lesinurad uptake, substrate test, OAT3 oocytes
T2 sequence (Q8TCC7 1-542): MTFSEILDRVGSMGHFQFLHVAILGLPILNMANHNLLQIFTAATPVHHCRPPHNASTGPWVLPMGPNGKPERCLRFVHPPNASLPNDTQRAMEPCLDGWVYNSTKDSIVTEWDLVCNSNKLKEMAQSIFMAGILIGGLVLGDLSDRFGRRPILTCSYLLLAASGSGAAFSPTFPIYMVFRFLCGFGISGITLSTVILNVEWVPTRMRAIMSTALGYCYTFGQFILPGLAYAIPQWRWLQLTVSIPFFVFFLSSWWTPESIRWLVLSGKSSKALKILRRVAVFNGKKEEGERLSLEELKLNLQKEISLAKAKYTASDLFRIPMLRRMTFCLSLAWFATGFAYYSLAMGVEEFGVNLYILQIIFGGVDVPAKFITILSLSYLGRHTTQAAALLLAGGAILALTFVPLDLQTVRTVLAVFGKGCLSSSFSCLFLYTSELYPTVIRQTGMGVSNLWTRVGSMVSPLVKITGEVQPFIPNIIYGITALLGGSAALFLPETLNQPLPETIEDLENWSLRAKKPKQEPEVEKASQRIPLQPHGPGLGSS

[3] = molecular target: T3, OCT1 (Homo sapiens, UniProt O15245); experiment: [14C]-lesinurad uptake, substrate test, hOCT1 MDCK-II cells
T3 sequence (O15245 1-554): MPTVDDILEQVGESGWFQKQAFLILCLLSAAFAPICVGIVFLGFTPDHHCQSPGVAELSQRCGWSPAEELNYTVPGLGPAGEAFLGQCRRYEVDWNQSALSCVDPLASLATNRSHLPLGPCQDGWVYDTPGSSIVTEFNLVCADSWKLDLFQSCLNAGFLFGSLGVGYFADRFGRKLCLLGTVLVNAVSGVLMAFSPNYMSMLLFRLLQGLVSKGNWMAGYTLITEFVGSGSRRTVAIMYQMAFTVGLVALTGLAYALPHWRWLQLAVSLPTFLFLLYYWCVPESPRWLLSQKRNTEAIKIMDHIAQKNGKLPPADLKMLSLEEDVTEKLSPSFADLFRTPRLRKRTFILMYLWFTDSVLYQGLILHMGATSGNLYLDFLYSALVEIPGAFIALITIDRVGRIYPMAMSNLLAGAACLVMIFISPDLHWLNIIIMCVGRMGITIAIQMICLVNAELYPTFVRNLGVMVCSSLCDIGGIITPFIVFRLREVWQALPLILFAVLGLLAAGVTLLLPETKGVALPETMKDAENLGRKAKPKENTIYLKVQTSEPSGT

[4] = molecular target: T4, OATP1B1 (Homo sapiens, UniProt Q9Y6L6); experiment: [14C]-lesinurad uptake, substrate test, hOATP1B1 MDCK-II cells
T4 sequence (Q9Y6L6 1-691): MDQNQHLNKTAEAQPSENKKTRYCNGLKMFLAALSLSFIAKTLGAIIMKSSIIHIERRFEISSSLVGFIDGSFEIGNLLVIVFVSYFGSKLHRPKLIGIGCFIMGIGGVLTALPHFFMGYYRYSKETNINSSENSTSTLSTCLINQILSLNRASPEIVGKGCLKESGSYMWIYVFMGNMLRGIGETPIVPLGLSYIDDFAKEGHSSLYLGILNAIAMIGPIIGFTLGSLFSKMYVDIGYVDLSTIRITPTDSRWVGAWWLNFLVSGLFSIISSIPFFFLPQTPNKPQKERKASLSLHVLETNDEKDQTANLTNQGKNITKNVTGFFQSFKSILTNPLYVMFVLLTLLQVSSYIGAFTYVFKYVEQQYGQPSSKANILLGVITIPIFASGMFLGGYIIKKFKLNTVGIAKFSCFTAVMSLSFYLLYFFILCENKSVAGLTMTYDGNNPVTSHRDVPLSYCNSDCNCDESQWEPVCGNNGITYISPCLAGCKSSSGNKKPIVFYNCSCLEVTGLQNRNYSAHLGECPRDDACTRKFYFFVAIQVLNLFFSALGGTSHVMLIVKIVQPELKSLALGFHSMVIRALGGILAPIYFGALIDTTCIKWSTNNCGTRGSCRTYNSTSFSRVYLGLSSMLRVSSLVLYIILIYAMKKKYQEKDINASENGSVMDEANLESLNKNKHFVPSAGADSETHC

- Lesinurad as substrate [1]: minor substrate
- Lesinurad as substrate [2]: substrate
- Lesinurad as substrate [3]: weak substrate
- Lesinurad as substrate [4]: weak substrate
- increase in lesinurad uptake in transfected versus non-transfected cells ([4]; lesinurad 10 µM): 2.25 fold
Compound: O=C(O)CSc1nnc(Br)n1-c1ccc(C2CC2)c2ccccc12 [lesinurad]
